Laboratory results taken from patent publication US20170369928A1, “METHOD FOR EVALUATING DNA DAMAGE FROM ANALYTE” (SOGANG UNIVERSITY RESEARCH FOUNDATION, priority 2016, published 2017).

Columns and labels:
Escherichia coli [1] = assay: single molecule DNA damage analysis (visualization of damaged lesions in genomic DNA of agarose-embedded cells); format: cell-based, Escherichia coli K-12 MG1655
Protocol: Escherichia coli K-12 MG1655 cells were grown in 5 mL LB broths in a shaking incubator (220 rpm) at 37° C. for six hours. Bacterial cells were harvested by centrifugation (10,000×g, 10 min) and washed twice with 0.85% NaCl solution and re-suspended in the same solution. The cell-suspension was then diluted such that OD600 was approximately between 0.5 and 1 and used for subsequent reactions.
Bacterial suspension (OD600=0.5) was mixed with 2% LGT agarose solution and then dispensed as 20 μL droplets on a surface and solidified in the refrigerator (4° C.) for 10 minutes. […] After incubation, all these plugs were washed in 0.85% NaCl solution for half an hour.
After alcohol treatment, bacteria embedded agarose plugs were subjected to lysis with proteinase K solution (50 units in 500 μL, Tris 10 mM and EDTA 1 mM, pH 8.0 (1×TE)) at 42° C. for 150 min. The plugs were then washed in 1 mL 1×TE overnight. For removing oxidized base adducts, agarose plugs were incubated with a mixture of 10 units Fpg, 10 units Nfo, and 20 units Nei in NEB buffer2 (50 mM NaCl, 10 mM Tris-HCl, 10 mM MgCl2, 1 mM DTT, pH 7.9) at 37° C. for one hour. After enzyme treatment, the plugs were washed twice with 1 mL 1×TE buffer for half-an-hour. The plugs were then incubated with 5 units DNA Polymerase I, 1 mM AlexaFluor-647 labeled dUTP and dNTP mix (1 mM dATP, 1 mM dGTP, 100 μM dCTP, 100 μM dTTP) in the polymerase reaction buffer (50 mM Tris-HCl, 1 mM DTT, 10 mM MgCl2, pH 7.5) at 37° C. for one hour to label gaps or nicks. […] After nick translation, the plugs were washed three times in 1 mL 1×TE buffer for one hour. Then agarose plugs were melted in 400 μL 1×TE buffer at 65° C. for 15 min and stained with 1 μM YOYO-1.
A PDMS device was mounted on the positively charged surface. Then, the solution of DNA molecules melted from low gelling temperature agarose plug was loaded onto the entrance of the microfluidic channels. While the solution moved through the microchannels by capillary action, DNA molecules were elongated and deposited on the positively charged surface.

Escherichia coli [2] = conditions: 30 minutes incubation in ethanol

CCO [ethanol, Ethanol]
number of DNA lesions corresponding to 17% ethanol (Escherichia coli [1]; 17% ethanol, 30 minutes, glycosylase mix): 16.4 lesions/genome | DNA length per one lesion at 17% ethanol (Escherichia coli [1]; 17% ethanol, 30 minutes, glycosylase mix, one lesion per ~300 kb): ~300 kb | increase in number of DNA lesions with every 1% increase in ethanol concentration (Escherichia coli [1]; E. coli embedded agarose plug, 30 minutes incubation, ethanol 5%-40%, glycosylase mix (Fpg, Nfo, Nei), linear fit r^2=0.98): 0.88 lesions/genome | labels per genome, ethanol incubation without glycosylase treatment (Escherichia coli [1]; without glycosylase treatment (triangles in FIG. 2A), 30 minutes incubation): 1.1-1.4 labels per genome | ethanol concentration above which bacterial cells could not survive (Escherichia coli [2]): above 17%
